Assay results: paper PMC5573416, “Inhibiting mycobacterial tryptophan synthase by targeting the inter-subunit interface” (Scientific Reports, 2017)

What was measured:
[1] = target: T1, Mtb tryptophan synthase (TrpA and TrpB-F188L) (Mycobacterium tuberculosis, UniProt P9WFX9+P9WFY1, F199L); type: biochemical
[2] = target: T1, Mtb tryptophan synthase (TrpA and TrpB-F188L); type: biochemical; remark: listed apart in the source

Structure (SMILES) | L-tryptophan synthesis in presence of inhibitor (TLC) [1] | L-tryptophan produced in presence of inhibitor (GF-HPLC) [2]
CNS(=O)(=O)c1ccc2c(c1)CCN2C(=O)c1ccccc1F [Compound 2] | relatively the same amount of tryptophan | 
CNS(=O)(=O)c1ccc2c(c1)CCN2C(=O)c1ccc(C)s1 [Compound 3] |  | L-tryptophan was produced
